The results in this text go back to patent publication US20230159509A1 (Amathus Therapeutics, Inc., priority 2020, published 2023).

The assay addresses T1, TRAP1 enzyme (Homo sapiens, UniProt Q12931).
T1 construct: 150 nM Trap1 enzyme was incubated with various concentrations of the test compound
T1 sequence (Q12931 60-704): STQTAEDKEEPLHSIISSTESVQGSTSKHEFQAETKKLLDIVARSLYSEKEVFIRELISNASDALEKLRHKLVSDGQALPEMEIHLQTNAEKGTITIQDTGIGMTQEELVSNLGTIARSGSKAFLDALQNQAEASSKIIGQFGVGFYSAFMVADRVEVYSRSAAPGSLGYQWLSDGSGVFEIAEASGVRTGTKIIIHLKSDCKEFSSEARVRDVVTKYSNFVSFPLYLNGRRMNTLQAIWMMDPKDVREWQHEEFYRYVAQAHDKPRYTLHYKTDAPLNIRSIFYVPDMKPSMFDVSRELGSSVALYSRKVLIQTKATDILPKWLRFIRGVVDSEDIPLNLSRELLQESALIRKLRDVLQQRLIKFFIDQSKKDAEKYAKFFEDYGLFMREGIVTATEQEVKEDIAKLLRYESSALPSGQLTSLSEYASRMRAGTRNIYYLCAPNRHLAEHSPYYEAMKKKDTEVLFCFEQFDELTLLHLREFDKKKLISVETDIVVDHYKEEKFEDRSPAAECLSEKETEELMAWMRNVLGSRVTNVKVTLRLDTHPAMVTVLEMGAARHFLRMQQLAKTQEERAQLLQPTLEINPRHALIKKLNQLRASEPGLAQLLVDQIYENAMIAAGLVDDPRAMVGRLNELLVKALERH
Nature of the assay: ADP Glo assay of TRAP1 ATPase activity. The conditions noted are these: 1 h; compound concentration 50 μM; read-out: ADP-Glo Percent Activation at 50 μM. It counts as biochemical. The method, boiled down:
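ADP-Glo luminescence quantifying ADP from 150 nM TRAP1 preincubated 30 min at 37° C with compound (0.79–100 μM), then 20 μM ATP for 60 min at 37° C. Buffer: 25 mM Pipes pH 7.5, 40 mM KCl, 0.05 mM MgCl2, EGTA, BSA, detergents. ADP from ATP/ADP standard curve; Emax and EC50 from sigmoidal fit.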

On to `COc1ncc(NC(=O)c2cnc(N(C)C)nc2)cc1S(=O)(=O)Nc1c(C)cccc1C` [compound 2737], for which the activation at 50 µM fell in the range of 120 to 150%.
Take `COc1ncc(NC(=O)c2cc(C)on2)cc1S(=O)(=O)Nc1c(C)cccc1C` [compound 2738]: the activation at 50 µM was in the range of 151 to 180%.
Regarding `COc1ncc(NC(=O)c2cnn3c2SCC3)cc1S(=O)(=O)Nc1c(C)cccc1C` [compound 2740], the activation at 50 µM lay within 181 to 352%.
Take `COc1ncc(NC(=O)c2ccon2)cc1S(=O)(=O)Nc1c(C)cccc1C` [compound 2741]: the activation at 50 µM was 120 to 150%.
As for `COc1ncc(NC(=O)c2ccc(N3CCN(C)CC3)c(F)c2)cc1S(=O)(=O)Nc1c(C)cccc1C` [compound 2742], the activation at 50 µM was in the range of 181 to 352%.
In the case of `COc1ncc(NC(=O)c2coc(C3CCCCC3)n2)cc1S(=O)(=O)Nc1c(C)cccc1C` [compound 2743], the activation at 50 µM lay in the range of 151 to 180%.
In the case of `COc1ncc(NC(=O)c2ccnc(N3CCOCC3)c2)cc1S(=O)(=O)Nc1c(C)cccc1C` [compound 2744], the activation at 50 µM was in the range of 181 to 352%.
Take `COc1ncc(NC(=O)c2ccc(C3CCN(C)CC3)cc2)cc1S(=O)(=O)Nc1c(C)cccc1C` [compound 2745]: the activation at 50 µM was in the range of 151 to 180%.
Consider `COc1ncc(NC(=O)c2ccc(NC(C)=O)cc2)cc1S(=O)(=O)Nc1c(C)cccc1C` [compound 2746], for which the activation at 50 µM lay within 181 to 352%.
In the case of `COc1ncc(NC(=O)c2cc(OC)n(C)n2)cc1S(=O)(=O)Nc1c(C)cccc1C` [compound 2747], the activation at 50 µM was 151 to 180%.
In the case of `COc1ncc(NC(=O)c2cc(C)[nH]n2)cc1S(=O)(=O)Nc1c(C)cccc1C` [compound 2749], the activation at 50 µM fell in the range of 151 to 180%.
With `CCn1cc(C(=O)Nc2cnc(OC)c(S(=O)(=O)Nc3c(C)cccc3C)c2)cn1` [compound 2750], the activation at 50 µM fell in the range of 120 to 150%.
Then `COc1ncc(NC(=O)c2ccc(CN3CCCC3)cc2)cc1S(=O)(=O)Nc1c(C)cccc1C` [compound 2751], with 120 to 150%; and `CCc1noc(C)c1C(=O)Nc1cnc(OC)c(S(=O)(=O)Nc2c(C)cccc2C)c1` [compound 2752], with 120 to 150%; and `COc1ncc(NC(=O)c2ncc[nH]2)cc1S(=O)(=O)Nc1c(C)cccc1C` [compound 2753], with 120 to 150%.
`COc1ncc(NC(=O)c2cc(C)no2)cc1S(=O)(=O)Nc1c(C)cccc1C` [compound 2754]: the activation at 50 µM lay in the range of 120 to 150%.
For the compound `COc1ncc(NC(=O)c2cn(C(C)(C)C)nn2)cc1S(=O)(=O)Nc1c(C)cccc1C` [compound 2755], the activation at 50 µM was in the range of 151 to 180%.
`COc1ncc(NC(=O)c2n[nH]cc2C)cc1S(=O)(=O)Nc1c(C)cccc1C` [compound 2756]: the activation at 50 µM was in the range of 151 to 180%.
Then `COc1ncc(NC(=O)c2nnsc2C2CC2)cc1S(=O)(=O)Nc1c(C)cccc1C` [compound 2758], with 151 to 180%.
In the case of `COc1ncc(NC(=O)c2cccnc2N2CCOCC2)cc1S(=O)(=O)Nc1c(C)cccc1C` [compound 2759], the activation at 50 µM was in the range of 181 to 352%.
As to `COc1ncc(NC(=O)c2ccc(NS(C)(=O)=O)cc2)cc1S(=O)(=O)Nc1c(C)cccc1C` [compound 2761], the activation at 50 µM lay within 181 to 352%.
With `COc1ncc(NC(=O)c2cnn(C)c2OC)cc1S(=O)(=O)Nc1c(C)cccc1C` [compound 2762], the activation at 50 µM fell in the range of 120 to 150%.
With `COc1ncc(NC(=O)c2ccc(N3CCN(C)CC3)c(Cl)c2)cc1S(=O)(=O)Nc1c(C)cccc1C` [compound 2764], the activation at 50 µM is 181 to 352%.
With `COc1ncc(NC(=O)c2ccc(CO)cc2)cc1S(=O)(=O)Nc1c(C)cccc1C` [compound 2766] the figure was 151 to 180%.
On to `COc1ncc(NC(=O)c2cccc(CO)c2)cc1S(=O)(=O)Nc1c(C)cccc1C` [compound 2767], for which the activation at 50 µM lay within 181 to 352%.
Then `COc1nc(C(F)(F)F)c(C(=O)Nc2cnc(OC)c(S(=O)(=O)Nc3c(C)cccc3C)c2)s1` [compound 2768], with 181 to 352%; and `CCCN1CCN(c2ccc(C(=O)Nc3cnc(OC)c(S(=O)(=O)Nc4c(C)cccc4C)c3)cc2)CC1` [compound 2769], with 181 to 352%.
With `COc1ncc(NC(=O)c2ccc(CN3CCCCC3)cc2)cc1S(=O)(=O)Nc1c(C)cccc1C` [compound 2770] the figure was 151 to 180%.
On to `COc1ncc(NC(=O)c2cn3c(n2)CCCC3)cc1S(=O)(=O)Nc1c(C)cccc1C` [compound 2771], for which the activation at 50 µM fell in the range of 151 to 180%.
With `COc1ncc(NC(=O)c2nccn2C)cc1S(=O)(=O)Nc1c(C)cccc1C` [compound 2772] the figure was 120 to 150%.
With `COc1ncc(NC(=O)c2ccc(N3CCN(C)CC3)cc2Cl)cc1S(=O)(=O)Nc1c(C)cccc1C` [compound 2774] the figure was 181 to 352%; with `COc1ncc(NC(=O)c2ccc(N3CCN(C)CC3)nc2)cc1S(=O)(=O)Nc1c(C)cccc1C` [compound 2775], 181 to 352%; with `COc1ncc(NC(=O)c2cnn(C)c2C)cc1S(=O)(=O)Nc1c(C)cccc1C` [compound 2776], 120 to 150%.
Turning to `COc1ncc(NC(=O)c2csnn2)cc1S(=O)(=O)Nc1c(C)cccc1C` [compound 2777], the activation at 50 µM was 120 to 150%.
As to `COc1ncc(NC(=O)c2[nH]ncc2Cl)cc1S(=O)(=O)Nc1c(C)cccc1C` [compound 2779], the activation at 50 µM fell in the range of 151 to 180%.
For `COc1ncc(NC(=O)c2nnsc2C)cc1S(=O)(=O)Nc1c(C)cccc1C` [compound 2780], the activation at 50 µM lay in the range of 151 to 180%.
For the compound `COc1ncc(NC(=O)c2ccno2)cc1S(=O)(=O)Nc1c(C)cccc1C` [compound 2781], the activation at 50 µM was in the range of 120 to 150%.
On to `COc1ncc(NC(=O)c2cccc(N3CCOCC3)c2C)cc1S(=O)(=O)Nc1c(C)cccc1C` [compound 2782], for which the activation at 50 µM lay in the range of 181 to 352%.
On to `COc1ncc(NC(=O)c2cccc(NC(=O)N(C)C)c2)cc1S(=O)(=O)Nc1c(C)cccc1C` [compound 2784], for which the activation at 50 µM was 181 to 352%.
`COCc1c[nH]c(C(=O)Nc2cnc(OC)c(S(=O)(=O)Nc3c(C)cccc3C)c2)c1` [compound 2785]: the activation at 50 µM was in the range of 120 to 150%.
Take `CCc1cc(C(=O)Nc2cnc(OC)c(S(=O)(=O)Nc3c(C)cccc3C)c2)nn1C` [compound 2786]: the activation at 50 µM was 181 to 352%.
Then `COc1ncc(NC(=O)c2ccc(C(C)(C)O)cc2)cc1S(=O)(=O)Nc1c(C)cccc1C` [compound 2787], with 151 to 180%; and `COc1ncc(NC(=O)c2ccc(N(C)C)nc2)cc1S(=O)(=O)Nc1c(C)cccc1C` [compound 2788], with 181 to 352%; and `COc1ncc(NC(=O)c2cnccc2N(C)C)cc1S(=O)(=O)Nc1c(C)cccc1C` [compound 2789], with 120 to 150%.
As to `COc1nc2c(cc1C(=O)Nc1cnc(OC)c(S(=O)(=O)Nc3c(C)cccc3C)c1)CCC2` [compound 2790], the activation at 50 µM is 181 to 352%.
Consider `CCN1CCN(c2ccc(C(=O)Nc3cnc(OC)c(S(=O)(=O)Nc4c(C)cccc4C)c3)cc2)CC1` [compound 2791], for which the activation at 50 µM lay in the range of 181 to 352%.
For `COc1ncc(NC(=O)c2cc3c(s2)CCC3)cc1S(=O)(=O)Nc1c(C)cccc1C` [compound 2792], the activation at 50 µM is 120 to 150%.
Then `COc1ncc(NC(=O)c2cnc3c(c2)OCCN3C)cc1S(=O)(=O)Nc1c(C)cccc1C` [compound 2793], with 181 to 352%.
